The star is where a group is joined. AMC = Cc1cc(=O)oc2cc(N*)ccc12; Tos = Cc1ccc(S(=O)(=O)*)cc1

The first data set has as its system human lung tryptase. Put plainly: Screening of tryptase substrates: responsiveness of fluorescent MCA substrates to tryptase. In kind it is biochemical. The settings on record: relative value with the sensitivity of ^iBoc-Ala-Ala-Arg-MCA defined as 100; 100 μM substrate, 50 mM Tris-HCl pH 8.0, ex 365 nm / em 470 nm. The procedure:
In addition to reference to past documents as described above, ^iBoc-Y-X-Arg-MCA in which Gly, Ala, Abu, Val, Pro, Phe or hydrophilic Lys having distinctive bulkiness was introduced to positions P2 and P3 was synthesized as listed in Table 1 by a peptide library approach, and activity measurement was performed. Abu (2-aminobutyric acid) is a non-protein amino acid, but was added as an optimum peptide sequence search tool.
The activity measurement was performed by the following method.
(1) A stock of a substrate solution was provided as a 2.0 mM solution in DMSO. (2) The stock of the substrate solution was diluted 20-fold with 50 mM Tris-HCl (pH 8.0) to prepare a 100 μM solution. 100 μL thereof was added to a polypropylene microtube, further 2 μL of a commercially available tryptase solution (manufactured by Cappel Laboratories, Inc.) was added thereto, and the tube was lightly vortexed for mixing. Immediately thereafter, change in fluorescence intensity at 470 nm was measured at an excitation wavelength of 365 nm using an enzyme activity measurement apparatus (manufactured by Peptide Support Ltd., prototype).
On to ^iBoc-Phe-Ser-Arg-MCA, for which the Tryptase activity came out at 11.

The molecule ^iBoc-Ala-Phe-Arg-MCA registered a Tryptase activity of 1.

As to ^iBoc-Phe-Gly-Arg-MCA, the Tryptase activity stood at 5.

Turning to ^iBoc-Abu-Abu-Arg-MCA, the Tryptase activity is recorded as 69.

For the molecule ^iBoc-Gly-Gly-Arg-MCA, the Tryptase activity was found to be 0.

Regarding ^iBoc-Val-Ala-Arg-MCA, the Tryptase activity is 53.

For ^iBoc-Lys-Ala-Arg-MCA, the Tryptase activity came out at 167.

For the molecule ^iBoc-Lys-Gly-Arg-MCA, the Tryptase activity worked out at 75.

For ^iBoc-Ala-Lys-Arg-MCA, the Tryptase activity was 11.

The molecule ^iBoc-Abu-Ala-Arg-MCA registered a Tryptase activity of 109.

On to `Cc1cc(=O)oc2cc(NC(=O)C(CCCNC(=N)N)NC(=O)OCC(C)C)ccc12` (stereo not drawn) [^iBoc-Arg-MCA], for which the Tryptase activity is recorded as 0.

As to “Tos-Gly-Pro-Arg-{AMC} [reference compound]”, the Tryptase activity is on record as 25.

^iBoc-Phe-Ala-Arg-MCA displayed a Tryptase activity of 62.

On to ^iBoc-Lys-Pro-Arg-MCA, for which the Tryptase activity was determined as 175.

Take ^iBoc-Ala-Val-Arg-MCA: the Tryptase activity came out at 50.

Regarding ^iBoc-Val-Pro-Arg-MCA, the Tryptase activity was 20.

In the case of ^iBoc-Ala-Abu-Arg-MCA, the Tryptase activity stood at 80.

Consider ^iBoc-Ala-Ala-Arg-MCA, for which the Tryptase activity came to 100.

As for ^iBoc-Gly-Pro-Arg-MCA, the Tryptase activity turned out to be 9.

Still in this data set, the particulars now being: screening of Table 1.
With ^iBoc-Lys-Ala-Arg-MCA, the “tryptase responsiveness compared with ^iBoc-Ala-Ala-Arg-MCA (in words)” value was “higher tryptase responsiveness than that of ^iBoc-Ala-Ala-Arg-MCA”.

For ^iBoc-Abu-Ala-Arg-MCA, the “tryptase responsiveness compared with ^iBoc-Ala-Ala-Arg-MCA (in words)” value is listed as “higher tryptase responsiveness than that of ^iBoc-Ala-Ala-Arg-MCA”.

As to ^iBoc-Lys-Pro-Arg-MCA, the “tryptase responsiveness compared with ^iBoc-Ala-Ala-Arg-MCA (in words)” value is “tryptase responsiveness slightly less than two times higher than that of ^iBoc-Ala-Ala-Arg-MCA”.

Another data set deals with Tryptase in Serum. Put plainly: Human serum enzyme activity with Suc-Ala-Ala-Arg-MCA-linked poly(L-lysine) substrate after addition of inhibitors. Format: biochemical. Conditions: human serum; Suc-Ala-Ala-Arg-MCA-linked poly(L-lysine) substrate. The method, then:
Suc-Ala-Ala-Arg-MCA-linked poly(L-lysine) prepared in Example 2 was used to test whether to be able to specifically measure tryptase activity in serum.
(1) 20.0 mg of Suc-Ala-Ala-Arg-MCA-linked poly(L-lysine) was dissolved in 50 mL of 50 mM Tris-HCl (pH 8.0). (2) 2 μL of commercially available human serum (manufactured by BioWest) was mixed with 2 μL of PBS(−) (pH 7.4) (control) or 2 μL of 10 μM nafamostat (tryptase inhibitor, manufactured by Tokyo Chemical Industry Co., Ltd.) or 2 μL of 10 U/mL hirudin (thrombin inhibitor, manufactured by Sigma-Aldrich Co., LLC). After a lapse of 10 minutes at room temperature, each mixed solution was added to 100 μL of the solution prepared in the step (1). Immediately thereafter, enzyme activity was measured.
In the case of `N=C(N)c1ccc2cc(OC(=O)c3ccc(N=C(N)N)cc3)ccc2c1` [nafamostat], the “inhibition of enzyme activity in serum detected with the macromolecular substrate (in words)” value is listed as “completely inhibited”.

Staying with this data set, now noted: relative value with serum + PBS(-) defined as 100; human serum preincubated 10 min with 2 μL of 10 μM nafamostat or 10 U/mL hirudin; substrate Suc-Ala-Ala-Arg-MCA-linked poly(L-lysine).
In the case of hirudin, the Enzyme activity was 83.

Take `N=C(N)c1ccc2cc(OC(=O)c3ccc(N=C(N)N)cc3)ccc2c1` [nafamostat]: the Enzyme activity came to 0.
